From EPA's ToxValDB 9.5 (doi:10.2903/j.efsa.2018.5126)
Converted amounts (≈) assume the structure as drawn.

What was measured:
[1] = system: Anas platyrhynchos; details: acute; oral; unspecified; mortality
[2] = system: Colinus virginianus; details: chronic
[3] = system: Rattus norvegicus; details: for LD50: acute, mortality
[4] = system: Apis mellifera; details: acute, mortality
[5] = system: Bibionidae; details: chronic/long-term; duration: 28 days
[6] = system: Landoltia sp.; details: chronic/long-term; duration: 7 days; frond number
[7] = system: Navicula pelliculosa; details: acute; duration: 72 hours; growth
[8] = system: Neomysis kadiakensis; details: chronic/long-term; duration: 28 days; reproduction
[9] = system: Oncorhynchus mykiss; details: acute; duration: 96 hours; mortality
[10] = system: Oryctolagus sp.; details: reproduction developmental; body weight
[11] = system: Tagia sp.; details: chronic/long-term; duration: 56 days; growth
[12] = system: Aphidius rhopalosiphi; assay: LR50; higher = less toxic; details: acute; mortality

SMILES	LD50 [1]	NOAEL [2]	LD50 [3]	NOAEL ([3]; reproduction developmental, body weight)	LC50 (acute, duration: 96 hours, mortality)	NOEC (chronic)	LD50 ([4]; dermal)	LD50 ([4]; oral, unspecified)	NOEC [5]	NOEC [6]	NOEC [7]	NOEC [8]	LC50 [9]	NOAEL [10]	NOAEL ([3]; chronic, duration: 26 months, organ weight)	NOAEL ([3]; reproduction developmental, histopathology: nonneoplastic)	NOAEL ([3]; subchronic, duration: 90 days, oral, histopathology: nonneoplastic)	NOEC [11]	LR50 [12]
N#Cc1c(O)c(Cl)c(Cl)c(C#N)c1Cl [4-Hydroxy-2,5,6-trichloroisophthalonitrile]	158 mg/kg-day	10.1 mg/kg-day	242 mg/kg-day	1.5 mg/kg-day	–	–	–	–	–	–	–	–	–	–	–	–	–	–	–
N#Cc1c(Cl)c(Cl)c(Cl)c(C#N)c1Cl [Chlorothalonil]	> 2000 mg/kg-day	–	> 5000 mg/kg-day	–	0.0107 µg/mL (≈ 0.0402 µM)	0.003 mg/L	> 40 µg/piece	> 40 µg/piece	0.04 mg/L	0.187 mg/L	0.013 mg/L	0.0004 mg/L	0.017 µg/mL (≈ 0.0639 µM)	< 5 mg/kg-day	1.8 mg/kg-day	< 22.6 mg/kg-day	1.5 mg/kg-day	0.75 mg/kg	> 262 g/ha
